target: T1, wild-type HIV-1 protease (Human immunodeficiency virus type 1 group M subtype B, UniProt P04585); test: Assay for Inhibition of Microbial Expressed HIV Protease (peptide substrate cleavage, LC-MS/MS readout); assay type: biochemical; details: E. coli expressed wild-type HIV-1 protease, mean of at least two independent experiments, read-out: HIV Pr Enzyme HIV1 PR IC50
T1 construct: Escherichia coli expressed wild-type HIV-1 protease protein
Summary of the method: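 E. coli-expressed wild-type HIV-1 protease ([…]) was preincubated with inhibitor 30 min at room temperature in pH 5.5 acetate buffer (100 mM NaCl, 0.1% BSA). Then 400 μM octapeptide substrate was added and reacted 1 h at 30 °C; inhibition came from LC-MS/MS product peak areas, mean of ≥2 experiments.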

| Structure (SMILES) | IC50 [nM] |
| --- | --- |
| COc1cc(-c2ncc3c(n2)CN(C(=O)c2cc(CN4C(=N)N[C@](CCCC(F)(F)F)(c5ccc(F)cc5)C4=O)ccc2C(F)(F)F)C3)ccn1 [Compound 52, (5R)-5-(4-fluorophenyl)-2-imino-3-[3-{[2-(2-methoxypyridin-4-yl)-5,7-dihydro-6H-pyrrolo[3,4-d]pyrimidin-6-yl]carbonyl}-4-(trifluoromethyl)benzyl]-5-(4,4,4-trifluorobutyl)imidazolidin-4-one] | 5.58 |
| N=C1NC(C[C@@H]2CCOC2)(c2ccccc2)C(=O)N1Cc1ccc(C(F)(F)F)c(C(=O)N2CCn3c(nnc3C(F)(F)F)C2)c1 (stereo partly drawn) [Compound 105, 2-imino-5-phenyl-5-[(3R)-tetrahydrofuran-3-ylmethyl]-3-[4-(trifluoromethyl)-3-{[3-(trifluoro-methyl)-5,6-dihydro[1,2,4]triazolo-[4,3-a]pyrazin-7(8H)-yl]carbonyl}-benzyl]limidazolidin-4-one] | 24.7 |
| N=C1NC(c2ccc(F)cc2)(c2ccc(F)cc2)C(=O)N1Cc1cccc(C(=O)N2CCC(n3c(=O)[nH]c4ccc(F)nc43)CC2)c1 [Compound 276, 3-{1-[(3-{[4,4-bis(4-fluorophenyl)-2-imino-5-oxoimidazolidin-1-yl]methyl}phenyl)carbonyl]piperidin-4-yl}-5-fluoro-1,3-dihydro-2H-imidazo[4,5-b]pyridin-2-one] | 29.6 |
| CC(C)CC[C@]1(c2ccccc2)NC(=N)N([C@@H]2CCS(=O)(=O)c3ccc(C(=O)N4Cc5nccnc5C4)cc32)C1=O [Compound 111, (5R)-3-[(4R)-6-(5,7-dihydro-6H-pyrrolo[3,4-b]pyrazin-6-ylcarbonyl)-1,1-dioxido-3,4-dihydro-2H-thiochromen-4-yl]-2-imino-5-(3-methylbutyl)-5-phenylimidazolidin-4-one] | 28.3 |
| N#Cc1ncc2c(n1)CN(C(=O)c1cc(CN3C(=N)NC(c4ccccc4)(c4ccccc4)C3=O)ccc1F)C2 [Compound 384, 6-({2-fluoro-5-[(2-imino-5-oxo-4,4-diphenylimidazolidin-1-yl)methyl]phenyl}carbonyl)-6,7-dihydro-5H-pyrrolo[3,4-d]pyrimidine-2-carbonitrile] | 21.6 |
| N=C1NC(c2ccccc2)(c2ccccc2)C(=O)N1Cc1cccc(C(=O)N2CCc3cc(F)ccc3C2)c1 [Compound 308, 3-{3-[(6-fluoro-3,4-dihydroisoquinolin-2(1H)-yl)carbonyl]benzyl}-2-imino-5,5-diphenylimidazolidin-4-one] | 49 |
| N=C1NC(c2ccccc2)(c2ccccc2)C(=O)N1Cc1ccc(Cl)c(C(=O)N2CCNC(=O)C2)c1 [Compound 380, 4-({2-chloro-5-[(2-imino-5-oxo-4,4-diphenylimidazolidin-1-yl)methyl]phenyl}carbonyl) piperazin-2-one] | 11.2 |
| CC(C)C[C@]1(c2ccccc2)NC(=N)N(Cc2ccc(C(F)(F)F)c(C(=O)N3Cc4nccnc4C3)c2)C1=O [Compound 149, (5R)-3-[3-(5,7-dihydro-6H-pyrrolo[3,4-b]pyrazin-6-ylcarbonyl)-4-(trifluoromethyl)-benzyl]-2-imino-5-(2-methylpropyl)-5-phenyl-imidazolidin-4-one] | 5.24 |
| N=C1N[C@](CCCC(F)(F)F)(c2ccc(F)cc2)C(=O)N1Cc1ccc(C(F)(F)F)c(C(=O)N2CCN(c3cncnc3)CC2)c1 [Compound 88, (5R)-5-(4-fluorophenyl)-2-imino-3-{3-[(4-pyrimidin-5-ylpiperazin-1-yl)carbonyl]-4-(trifluoromethyl)-benzyl}-5-(4,4,4-trifluorobutyl)-imidazolidin-4-one] | 15.2 |
| N=C1NC(c2ccccc2)(c2ccccc2)C(=O)N1Cc1cccc(C(=O)N2Cc3cc(Cl)c(Cl)cc3C2)c1 [Compound 271, 3-{3-[(5,6-dichloro-1,3-dihydro-2H-isoindol-2-yl)carbonyl]benzyl}-2-imino-5,5-diphenylimidazolidin-4-one] | 27.9 |
| N=C1NC(c2ccccc2)(c2ccccc2)C(=O)N1Cc1cccc(C(=O)N2CCc3ccncc3C2)c1 [Compound 313, 3-[3-(3,4-dihydro-2,7-naphthyridin-2(1H)-ylcarbonyl)benzyl]-2-imino-5,5-diphenylimidazolidin-4-one] | 52.1 |
| N=C1NC(c2ccccc2)(c2ccccc2)C(=O)N1Cc1ccc(F)c(C(=O)N2Cc3nccnc3C2)c1 [Compound 379, 3-[3-(5,7-dihydro-6H-pyrrolo[3,4-b]pyrazin-6-ylcarbonyl)-4-fluorobenzyl]-2-imino-5,5-diphenylimidazolidin-4-one] | 10.7 |
| N=C1NC(c2ccc(F)cc2)(c2ccc(F)cc2)C(=O)N1Cc1cccc(C(=O)N2Cc3cc(Cl)c(Cl)cc3C2)c1 [Compound 286, 3-{3-[(5,6-dichloro-1,3-dihydro-2H-isoindol-2-yl)carbonyl]benzyl}-5,5-bis(4-fluorophenyl)-2-iminoimidazolidin-4-one] | 33.7 |
| CC(C)CCC1(c2ccccc2)NC(=N)N(Cc2ccc(C(F)(F)F)c(C(=O)N3Cc4nccnc4C3)c2)C1=O (stereo not shown) [Compound 151, 3-[3-(5,7-dihydro-6H-pyrrolo[3,4-b]pyrazin-6-ylcarbonyl)-4-(trifluoromethyl)benzyl]-2-imino-5-(3-methylbutyl)-5-phenylimidazolidin-4-one] | 6.62 |
| N=C1NC(c2ccccc2)(c2ccccc2)C(=O)N1Cc1ccc(F)c(C(=O)N2Cc3cncnc3C2)c1 [Compound 385, 3-[3-(5,7-dihydro-6H-pyrrolo[3,4-d]pyrimidin-6-ylcarbonyl)-4-fluorobenzyl]-2-imino-5,5-diphenylimidazolidin-4-one] | 25.8 |
| CC(C)CC[C@]1(c2ccc(F)cc2)NC(=N)N(C(CCCc2ccccc2)c2ccc(C(F)(F)F)c(C(=O)N3CCn4c(nnc4C(F)(F)F)C3)c2)C1=O (stereo partly drawn) [Compound 56, (5R)-5-(4-fluorophenyl)-2-imino-5-(3-methylbutyl)-3-{4-phenyl-1-[4-(trifluoromethyl)-3-{[3-(trifluoromethyl)-5,6-dihydro[1,2,4]-triazolo[4,3-a]pyrazin-7(8H)-yl]carbonyl}-phenyl]butyl}imidazolidin-4-one] | 6.19 |
| N=C1N[C@](CCCC(F)(F)F)(c2ccc(F)cc2)C(=O)N1Cc1ccc(C(F)(F)F)c(C(=O)N2CCN3c4ccccc4CC3C2)c1 (stereo partly drawn) [Compound 132, (5R)-5-(4-fluorophenyl)-2-imino-3-[3-(3,4,10,10a-tetrahydropyrazino-[1,2-a]indol-2(1H)-ylcarbonyl)-4-(trifluoromethyl)benzyl]-5-(4,4,4-trifluorobutyl)imidazolidin-4-one] | 86.6 |
| N=C1N[C@](CCCC(F)(F)F)(c2ccc(F)cc2)C(=O)N1Cc1ccc(C(F)(F)F)c(C(=O)N2Cc3cnc(-c4ccc(-n5cccn5)nc4)nc3C2)c1 [Compound 89, (5R)-5-(4-fluorophenyl)-2-imino-3-[3-({2-[6-(1H-pyrazol-1-yl)pyridin-3-yl]-5,7-dihydro-6H-pyrrolo[3,4-d]pyrimidin-6-yl}carbonyl)-4-(trifluoromethyl)benzyl]-5-(4,4,4-trifluorobutyl)imidazolidin-4-one] | 15.7 |
| CC(C)CC1(c2ccccc2)NC(=N)N(Cc2cccc(C(=O)N3Cc4cnc(C#N)nc4C3)c2)C1=O (stereo not shown) [Compound 222, 6-[(3-{[2-imino-4-(2-methylpropyl)-5-oxo-4-phenylimidazolidin-1-yl]methyl}phenyl)carbonyl]-6,7-dihydro-5H-pyrrolo[3,4-d]pyrimidine-2-carbonitrile] | 11.1 |

Source: US20200069691A1, “HETEROCYCLIC COMPOUNDS AS HIV PROTEASE INHIBITORS” (Merck Sharp & Dohme Corp., priority 2016, published 2020)
